For orientation: MIC means the lowest concentration that inhibits growth of the organism.

Each structure is given as a SMILES string. In brackets after ≈: the same amount, converted by molar mass.

This note sets out measurements from ChEMBL document CHEMBL2424558, “Synthesis and biological evaluation of novel quinazoline derivatives obtained by Suzuki CC coupling” (2013).

Holding throughout (format): functional
Assay [1] relates to Staphylococcus aureus. The assay is described as follows: Antibacterial activity against Staphylococcus aureus MTCC 96. The settings on record: for MIC: Staphylococcus aureus, MTCC 96.
Assay [2] has as its system Klebsiella pneumoniae. The assay is described as follows: Antibacterial activity against Klebsiella pneumoniae MTCC 109. Conditions: for MIC: Klebsiella pneumoniae, MTCC 109.
Assay [3] concerns Candida albicans. The assay is described as follows: Antifungal activity against Candida albicans MTCC 183. Conditions: for MIC: Candida albicans, MTCC 183.
Assay [4] relates to Mycobacterium tuberculosis. Kind of assay: Antimycobacterial activity against Mycobacterium tuberculosis H37Rv. The settings on record: for MIC: Mycobacterium tuberculosis, H37Rv.
Assay [5] relates to Pseudomonas aeruginosa. The assay is described as follows: Antibacterial activity against Pseudomonas aeruginosa MTCC 741. The settings on record: for MIC: Pseudomonas aeruginosa, MTCC 741.
For assay [6], the system named is Bacillus cereus. The assay is described as follows: Antibacterial activity against Bacillus cereus MTCC 430. Conditions: for MIC: Bacillus cereus, MTCC 430.
Assay [7] deals with Escherichia coli. The assay is described as follows: Antibacterial activity against Escherichia coli MTCC 739. Conditions: for MIC: Escherichia coli, MTCC 739.
The test system of assay [8] is Aspergillus niger. The assay is described as follows: Antifungal activity against Aspergillus niger MTCC 282. The settings on record: for MIC: Aspergillus niger, MTCC 282.

Regarding `COc1ccc(NC(=O)Nc2ccc(-c3nc(Oc4cccc(C)c4)c4ccccc4n3)cc2)cc1`, the “inhibition zone (IZ)” value was found to be 23 mm in assay [1]; 26 mm in assay [2]; 25 mm in assay [3]; 26 mm in assay [5]; 22 mm in assay [6]; 24 mm in assay [7]. For the same compound, the “inhibition zone (IZ)” value in assay [8] turned out to be 23 mm. Besides, the MIC came to 25 µg/mL (≈ 52.5 µM) in assay [1]; 200 µg/mL (≈ 420 µM) in assay [2]; 25 µg/mL (≈ 52.5 µM) in assay [3]; 62.5 µg/mL (≈ 131 µM) in assay [4]; 25 µg/mL (≈ 52.5 µM) in assay [5]; 50 µg/mL (≈ 105 µM) in assay [6]. In addition, the MIC in assay [7] stood at 200 µg/mL (≈ 420 µM); in assay [8] it was 50 µg/mL (≈ 105 µM). In assay [4], the “inhibition (INH)” value is given as 94%.
Consider `COc1ccc(NC(=S)Nc2ccc(-c3nc(Oc4cccc(C)c4)c4ccccc4n3)cc2)cc1`, for which the “inhibition zone (IZ)” value in assay [1] is listed as 25 mm; in assay [2] it was 24 mm; in assay [3], 28 mm; in assay [5], 27 mm; in assay [6], 24 mm; in assay [7], 27 mm. Further, the “inhibition zone (IZ)” value in assay [8] came out at 21 mm. The MIC in assay [1] was determined as 12.5 µg/mL (≈ 25.4 µM); in assay [2], 50 µg/mL (≈ 102 µM); in assay [3], 12.5 µg/mL (≈ 25.4 µM); in assay [4], 100 µg/mL (≈ 203 µM); in assay [5], 25 µg/mL (≈ 50.8 µM); in assay [6], 50 µg/mL (≈ 102 µM). For the same compound, the values for the MIC in assay [7] and in assay [8] were 25 µg/mL (≈ 50.8 µM) and 50 µg/mL (≈ 102 µM), respectively. Further, in assay [4], the “inhibition (INH)” value came to 97%.
On to `CCOc1ccc(NC(=O)Nc2ccc(-c3nc(Oc4cccc(C)c4)c4ccccc4n3)cc2)cc1`, for which the “inhibition zone (IZ)” value was found to be 22 mm in assay [1]; 25 mm in assay [2]; 27 mm in assay [3]; 26 mm in assay [5]; 24 mm in assay [6]; 24 mm in assay [7]. Further, the “inhibition zone (IZ)” value in assay [8] came out at 23 mm. In addition, the MIC worked out at 50 µg/mL (≈ 102 µM) in assay [1]; 25 µg/mL (≈ 51 µM) in assay [2]; 50 µg/mL (≈ 102 µM) in assay [3]; 100 µg/mL (≈ 204 µM) in assay [4]; 50 µg/mL (≈ 102 µM) in assay [5]; 25 µg/mL (≈ 51 µM) in assay [6]. In addition, the values for the MIC in assay [7] and in assay [8] were 200 µg/mL (≈ 408 µM) and 50 µg/mL (≈ 102 µM), respectively. Further, in assay [4], the “inhibition (INH)” value is recorded as 96%.
For `Cc1cccc(Oc2nc(-c3ccc(NC(=O)Nc4ccc(F)cc4)cc3)nc3ccccc23)c1`, the “inhibition zone (IZ)” value is given as 22 mm in assay [1]; 21 mm in assay [2]; 26 mm in assay [3]; 23 mm in assay [5]; 21 mm in assay [6]; 23 mm in assay [7]. Further, in assay [8], the “inhibition zone (IZ)” value is listed as 23 mm. Besides, the MIC worked out at 200 µg/mL (≈ 431 µM) in assay [1]; 200 µg/mL (≈ 431 µM) in assay [2]; 12.5 µg/mL (≈ 26.9 µM) in assay [3]; 62.5 µg/mL (≈ 135 µM) in assay [4]; 100 µg/mL (≈ 215 µM) in assay [5]; 100 µg/mL (≈ 215 µM) in assay [6]. The minimal inhibitory concentration (MIC) in assay [7] was 62.5 µg/mL (≈ 135 µM); in assay [8], 25 µg/mL (≈ 53.8 µM). Also, in assay [4], the “inhibition (INH)” value was determined as 97%.
Regarding `Cc1cccc(Oc2nc(-c3ccc(NC(=S)Nc4ccccc4)cc3)nc3ccccc23)c1`, the “inhibition zone (IZ)” value in assay [1] was 27 mm; in assay [2] it was 22 mm; in assay [3] it was 25 mm; in assay [5], 25 mm; in assay [6], 24 mm; in assay [7], 26 mm. Also, the “inhibition zone (IZ)” value in assay [8] is on record as 23 mm. For the same compound, the minimal inhibitory concentration (MIC) in assay [1] is 200 µg/mL (≈ 432 µM); in assay [2] it was 200 µg/mL (≈ 432 µM); in assay [3] it was 200 µg/mL (≈ 432 µM); in assay [4], 100 µg/mL (≈ 216 µM); in assay [5], 50 µg/mL (≈ 108 µM); in assay [6], 50 µg/mL (≈ 108 µM). Moreover, the MIC was found to be 250 µg/mL (≈ 540 µM) in assay [7] and 50 µg/mL (≈ 108 µM) in assay [8]. The “inhibition (INH)” value in assay [4] was determined as 95%.
For `Cc1cccc(Oc2nc(-c3ccc(NC(=S)Nc4ccc(Cl)cc4)cc3)nc3ccccc23)c1`, the “inhibition zone (IZ)” value was determined as 24 mm in assay [1]; 27 mm in assay [2]; 28 mm in assay [3]; 26 mm in assay [5]; 27 mm in assay [6]; 27 mm in assay [7]. The “inhibition zone (IZ)” value in assay [8] is 24 mm. Also, the MIC in assay [1] was determined as 12.5 µg/mL (≈ 25.1 µM); in assay [2], 25 µg/mL (≈ 50.3 µM); in assay [3] it was 25 µg/mL (≈ 50.3 µM); in assay [4] it was 25 µg/mL (≈ 50.3 µM); in assay [5] it was 12.5 µg/mL (≈ 25.1 µM); in assay [6], 50 µg/mL (≈ 101 µM). The MIC turned out to be 25 µg/mL (≈ 50.3 µM) in assay [7] and 12.5 µg/mL (≈ 25.1 µM) in assay [8]. In addition, the “inhibition (INH)” value in assay [4] worked out at 98%.
As to `Cc1cccc(Oc2nc(-c3ccc(NC(=S)Nc4ccc(Br)cc4)cc3)nc3ccccc23)c1`, the “inhibition zone (IZ)” value is reported as 29 mm in assay [1]; 27 mm in assay [2]; 27 mm in assay [3]; 25 mm in assay [5]; 26 mm in assay [6]; 25 mm in assay [7]. In addition, the “inhibition zone (IZ)” value in assay [8] was determined as 23 mm. Besides, the MIC in assay [1] was found to be 6.25 µg/mL (≈ 11.5 µM); in assay [2], 12.5 µg/mL (≈ 23.1 µM); in assay [3], 12.5 µg/mL (≈ 23.1 µM); in assay [4], 12.5 µg/mL (≈ 23.1 µM); in assay [5], 25 µg/mL (≈ 46.2 µM); in assay [6], 12.5 µg/mL (≈ 23.1 µM). The MIC came out at 50 µg/mL (≈ 92.3 µM) in assay [7] and 25 µg/mL (≈ 46.2 µM) in assay [8]. Moreover, in assay [4], the “inhibition (INH)” value is on record as 99%.
